The results in this text go back to patent publication US10987059B2, “Electronic scaffold and uses thereof” (Ramot at Tel-Aviv University Ltd., priority 2013, dated 2021).

Data set [1] concerns neonatal rat ventricular cardiomyocytes. Kind of data set: Action potentials recorded from the engineered (cyborg) tissue before and after adding a stimulating drug. The data set is classed as cell-based. To be noted: 100 nM in growth medium, 15 minutes incubation; single electrode; device with albumin fibrous scaffold; before vs after drug. The method, then: After the device was incubated for a time period that allows tissue generation, the obtained cyborg tissue was connected to the pre-amplifier and monitored through the computer, using a system as exemplified in FIG. 8. This allows monitoring the progress of tissue formation as well as studying the influence of different conditions and substances on the tissue, an approach that could replace animal drug testing and make it easier and simpler.
At the time of the recording, the device was connected to a ME64-FAI-MPA-System by multichannel systems (Germany). Action potentials were recorded using the MC rack software which allows recording over multiple electrodes simultaneously.
After action potentials were recorded, 100 nM of noradrenaline was added to the growth medium and the device was allowed to incubate for 15 minutes after which the device was reconnected and action potentials were again recorded.

Data set [2] in a line: Release profile of SSA from polypyrrole hydrogel scaffold upon voltage application. The data set is classed as physicochemical. The following applies: absorbance at 280 nm. The method, then: Pyrrole was […] in a 10-mL one-compartment cell, using an electrochemical workstation under computer control. The gold-based microelectrodes, prepared as described in Example 1 hereinabove, were used as working electrodes. The counter electrode was platinum wire and the reference electrode was a saturated calomel electrode (SCE). The electrolyte was an aqueous solution (100 ml) containing 0.2 M pyrrole (1.39 ml) and 0.2 M sulfosalicylic acid (5.08 grams), which was degassed by nitrogen stream before polymerization was effected. The SSA-doped PPy films (PPy-SSA) were prepared on the gold microelectrodes by galvanostatic polymerization using a current density of 2.5 mA/cm^2 for 800 seconds. The as-prepared PPy-SSA films were rinsed with de-ionized water and dried in air at room temperature. A second layer was thereafter deposited by using an aqueous solution (100 ml) of 0.2 M pyrrole and 0.1 M NaCl (0.5844 grams), subjected to a galvanostatic polymerization with a current density of 2 mA/cm^2 for 500 seconds.

For data set [3] the following is noted: poly(2-acrylamido-2-methylpropane sulfonic acid-co-n-butylmethacrylate) scaffold; PBS medium; optical density at 462.
Description: The release profile of dopamine from device polymeric element made of a positive electro-responsive polymer as described herein was measured as follows:
Disc shaped preloaded slices of formed hydrogel (2-3 mm) were placed between two Graphite electrodes (1 cm apart) in a plastic culture plate. The electrodes were connected to a stimulus generator (STG-4002 multichannel systems, Germany), and the plate was filled with a medium of PBS (0.35 ml). A DC pulse of different intensities (0-8 volt) and different durations (0-15 minutes) was supplied.
Nano-Drop spectrophotometer (ND-1000 spectrophotometer, Thermo scientific, Wilmington Del. U.S.A) at a wave length of 462 was used to examine the light absorbance of the medium. The relation between the light absorbance and the concentration is given by Beer-Lambert as a linear equation: A=εlc
wherein A is the light absorbance, l is the length of the light through the sample [m], C is the concentration in [M], and ε is the molar absorptivity [m^−1M^−1].

Regarding `NC[C@H](O)c1ccc(O)c(O)c1` [Noradrenalin], in data set [1], the “frequency of the action potentials” value is on record as “increased”. As to `O=C(O)c1cc(S(=O)(=O)O)ccc1O` [SSA, Sulfosalicylic acid], the “drug release, voltage on vs off” value in data set [2] is “When voltage is applied the drug is released into the polymer's vicinity and when voltage application is discontinued drug release ceases”.

Consider `NCCc1ccc(O)c(O)c1` [dopamine], for which, in data set [3], the “drug release rate, voltage on vs off” value is “much higher drug release rate when voltage is applied (on) than when it is not applied (off)”.
